Drawing on patent US20100137313A1 (ASTRAZENECA AB, priority 2008, published 2010), this text covers inhibition for 23 compounds.

S. pneumoniae Topoisomerase IV ATPase (ParE), sequence (Q59961 whole entry): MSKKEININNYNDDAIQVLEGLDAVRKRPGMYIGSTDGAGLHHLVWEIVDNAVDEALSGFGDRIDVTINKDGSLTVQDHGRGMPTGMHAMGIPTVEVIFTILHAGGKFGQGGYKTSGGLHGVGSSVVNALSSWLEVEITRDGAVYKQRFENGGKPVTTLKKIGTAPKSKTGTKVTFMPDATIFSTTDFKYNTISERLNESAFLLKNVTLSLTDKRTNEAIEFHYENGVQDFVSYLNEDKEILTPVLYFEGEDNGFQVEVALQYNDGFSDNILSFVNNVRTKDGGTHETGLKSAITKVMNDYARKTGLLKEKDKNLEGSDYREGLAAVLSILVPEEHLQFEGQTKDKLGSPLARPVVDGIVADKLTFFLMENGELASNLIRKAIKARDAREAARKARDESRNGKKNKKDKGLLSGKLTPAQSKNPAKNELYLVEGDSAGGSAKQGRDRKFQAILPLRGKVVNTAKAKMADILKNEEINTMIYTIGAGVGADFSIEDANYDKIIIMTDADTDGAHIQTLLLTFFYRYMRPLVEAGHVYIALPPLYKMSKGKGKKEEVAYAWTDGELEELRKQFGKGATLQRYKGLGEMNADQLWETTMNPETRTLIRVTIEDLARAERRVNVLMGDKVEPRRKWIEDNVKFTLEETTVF

The target of this experiment is S. pneumoniae Topoisomerase IV ATPase (ParE) (Streptococcus pneumoniae serotype 4, UniProt Q59961). Description: S. pneumoniae Topoisomerase IV ATPase inhibition. In kind it is biochemical. As to conditions: values marked * are an average of two or more data points, read-out: % Inh (13 μM) of S. pneumoniae Topoisomerase IV ATPase. Summed up:
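Phosphate release by ParE ATPase from S. pneumoniae read colorimetrically (malachite green, 650 nm), enzyme 1.25 nM, ATP 160 μM, salmon sperm DNA present, buffer 20 mM Tris pH 8.0 with 8 mM MgCl2. IC50 over 10 compound concentrations, EDTA (20 μM) and DMSO controls defining inhibition range.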
For `O=C(O)c1cncc(-c2cnc(Nc3ccc(F)c(Cl)c3)nc2-n2cnc(C(F)(F)F)c2)c1` [Example 328, 5-{2-[(3-chloro-4-fluorophenyl)amino]-4-[4-(trifluoromethyl)-1H-imidazol-1-yl]pyrimidin-5-yl}pyridine-3-carboxylic acid], the inhibition at 13 µM stood at 70.8%.

Take `O=C(O)c1cncc(-c2cnc(Nc3ccc(F)c(Cl)c3)nc2-n2ccnn2)c1` [Example 329, 5-{2-[(3-chloro-4-fluorophenyl)amino]-4-(1H-1,2,3-triazol-1-yl)pyrimidin-5-yl}pyridine-3-carboxylic acid]: the inhibition at 13 µM is 116%.

Turning to `O=C(O)/C=C/c1cccc(-c2cnc(Nc3ccc(F)c(Cl)c3)nc2-n2cnc(Cl)c2Cl)c1` [Example 331, (2E)-3-(3-{2-[(3-chloro-4-fluorophenyl)amino]-4-(4,5-dichloro-1H-imidazol-1-yl)pyrimidin-5-yl}phenyl)prop-2-enoic acid], the inhibition at 13 µM came to 59.8%.

In the case of `O=C(O)/C=C/c1cccc(-c2cnc(Nc3ccc(F)c(Cl)c3)nc2-n2cnc(C(F)(F)F)c2)c1` [Example 332, (2E)-3-(3-{2-[(3-chloro-4-fluorophenyl)amino]-4-[4-(trifluoromethyl)-1H-imidazol-1-yl]pyrimidin-5-yl}phenyl)prop-2-enoic acid], the inhibition at 13 µM amounted to 62.1%.

As to `O=C(O)/C=C/c1cccc(-c2cnc(Nc3ccc(F)c(Cl)c3)nc2-n2ccnn2)c1` [Example 333, (2E)-3-(3-{2-[(3-chloro-4-fluorophenyl)amino]-4-(1H-1,2,3-triazol-1-yl)pyrimidin-5-yl}phenyl)prop-2-enoic acid], the inhibition at 13 µM is 69.8%.

As to `O=C(O)/C=C/c1cccc(-c2cnc(Nc3ccc(F)c(Cl)c3)nc2-n2nc3cccnc3n2)c1` [Example 334, (2E)-3-(3-{2-[(3-chloro-4-fluorophenyl)amino]-4-(2H-[1,2,3]triazolo[4,5-b]pyridin-2-yl)pyrimidin-5-yl}phenyl)prop-2-enoic acid], the inhibition at 13 µM is 104%.

On to `CN(C)CCCNc1nc(Nc2ccc(F)c(F)c2)ncc1-c1ccc(C(=O)O)s1` [Example 335, 5-(2-(3,4-difluorophenylamino)-4-(3-(dimethylamino)propylamino)pyrimidin-5-yl)thiophene-2-carboxylic acid], for which the inhibition at 13 µM was determined as 76.5%.

As to `CN(C)CCCNc1nc(Nc2ccc(F)c(F)c2)ncc1-c1cccc(/C=C/C(=O)O)c1` [Example 336, (E)-3-(3-(2-(3,4-difluorophenylamino)-4-(3-(dimethylamino)propylamino)pyrimidin-5-yl)phenyl)acrylic acid], the inhibition at 13 µM is 83.7%.

Take `Cc1ccc(Nc2ncc(-c3ccc(C(=O)O)s3)c(NCCCN(C)C)n2)cc1C#N` [Example 337, 5-(2-(3-cyano-4-methylphenylamino)-4-(3-(dimethylamino)propylamino)pyrimidin-5-yl) thiophene-2-carboxylic acid]: the inhibition at 13 µM was determined as 64.4%.

Turning to `Cc1ccc(Nc2ncc(-c3cccc(/C=C/C(=O)O)c3)c(NCCCN(C)C)n2)cc1C#N` [Example 338, (E)-3-(3-(2-(3-cyano-4-methylphenylamino)-4-(3-(dimethylamino)propylamino)pyrimidin-5-yl)phenyl)acrylic acid], the inhibition at 13 µM was found to be 58.4%.

Turning to `CN(C)CCCNc1nc(Nc2cc(Cl)cc(Cl)c2)ncc1-c1ccc(C(=O)O)s1` [Example 339, 5-(2-(3,5-dichloro-phenylamino)-4-(3-(dimethylamino)propylamino)pyrimidin-5-yl) thiophene-2-carboxylic acid], the inhibition at 13 µM was found to be 84.3%.

Take `CN(C)CCCNc1nc(Nc2cc(Cl)cc(Cl)c2)ncc1-c1cccc(/C=C/C(=O)O)c1` [Example 340, (E)-3-(3-(2-(3,5-dichlorophenylamino)-4-(3-(dimethylamino)propylamino)pyrimidin-5-yl)phenyl)acrylic acid]: the inhibition at 13 µM stood at 83.3%.

Regarding `CN(C)CCCNc1nc(Nc2cc(C(F)(F)F)cc(C(F)(F)F)c2)ncc1-c1ccc(C(=O)O)s1` [Example 341, 5-(2-(3,5-bis(trifluoromethyl)phenylamino)-4-(3-(dimethylamino)propylamino)pyrimidin-5-yl) thiophene-2-carboxylic acid], the inhibition at 13 µM is 87.2%.

`COc1cc(Cl)c(C)cc1Nc1ncc(-c2ccc(C(=O)O)s2)c(NCCCN(C)C)n1` [Example 342, 5-(2-(4-chloro-2-methoxy-5-methylphenylamino)-4-(3-(dimethylamino)propylamino)pyrimidin-5-yl) thiophene-2-carboxylic acid]: the inhibition at 13 µM came out at 77%.

In the case of `CCOC(=O)/C=C/c1cccc(-c2cnc(Nc3cc(C)c(Cl)cc3OC)nc2NCCCN(C)C)c1` [Example 343, (E)-ethyl 3-(3-(2-(4-chloro-2-methoxy-5-methylphenylamino)-4-(3-(dimethylamino)propylamino)pyrimidin-5-yl)phenyl)acrylate], the inhibition at 13 µM is -22.3%.

On to `COc1cc(Nc2ncc(-c3cncnc3)c(NCCCN(C)C)n2)cc(OC)c1` [Example 344, N^2-(3,5-dimethoxyphenyl)-N^4-(3-(dimethylamino)propyl)-5,5′-bi pyrimidin-2,4-diamine], for which the inhibition at 13 µM worked out at 82%.

`COc1cc(Nc2ncc(-c3ccc(C(=O)O)s3)c(NCCCN(C)C)n2)cc(OC)c1` [Example 345, 5-(2-(3,5-dimethoxy-phenylamino)-4-(3-(dimethylamino)propyamino)pyrimidin-5-yl) thiophene-2-carboxylic acid]: the inhibition at 13 µM was 82.7%.

As to `COc1cc(Nc2ncc(-c3ccc(C(=O)O)s3)c(NCCCN(C)C)n2)cc(C(F)(F)F)c1` [Example 346, 5-{4-[3-(dimethylamino)propylamino]-2-[3-methoxy-5-(trifluoromethyl)phenylamino]pyrimidin-5-yl}thiophene-2-carboxylic acid], the inhibition at 13 µM came out at 79.5%.

As for `COc1cc(Nc2ncc(-c3ccc(C(=O)O)s3)c(NCCCN(C)C)n2)c(OC)cc1Cl` [Example 347, 5-(2-(4-chloro-2,5-dimethoxyphenyl-amino)-4-(3-(dimethylamino)propylamino)pyrimidin-5-yl)thiophene-2-carboxylic acid], the inhibition at 13 µM is 42.2%.

With `COc1cc(Nc2ncc(-c3cccc(/C=C/C(=O)O)c3)c(N3CC(C)OC(C)C3)n2)cc(C(F)(F)F)c1` (centres unmarked) [Example 348, (E)-3-(3-(4-(2,6-dimethylmorpholino)-2-(3-methoxy-5-(trifluoromethyl)phenylamino)pyrimidin-5-yl)phenyl) acrylic acid], the inhibition at 13 µM was determined as 85.7%.

Take `COc1cc(Nc2ncc(-c3cnc(OC)nc3)c(N3CC(C)OC(C)C3)n2)cc(C(F)(F)F)c1` (centres unmarked) [Example 349, 4-(2,6-dimethylmorpholino)-2′-methoxy-N-(3-methoxy-5-(trifluoromethyl)phenyl)-5,5′-bipyrimidin-2-amine]: the inhibition at 13 µM stood at 83.6%.

Consider `O=C(O)/C=C/c1cccc(-c2cnc(Nc3ccc(F)c(F)c3)nc2N2CCOCC2)c1` [Example 350, (E)-3-(3-(2-(3,4-difluorophenylamino)-4-morpholinopyrimidin-5-yl)phenyl)acrylic acid], for which the inhibition at 13 µM is 69%.

As to `COc1cc(Nc2ncc(-c3cccc(/C=C/C(=O)O)c3)c(N3CCOCC3)n2)cc(OC)c1` [Example 351, (E)-3-(3-(2-(3,5-dimethoxyphenylamino)-4-morpholinopyrimidin-5-yl)phenyl) acrylic acid], the inhibition at 13 µM was found to be 82.8%.
